This is an account of results in US20240246941A1, “SUBSTITUTED 4-(3-AMINOPROP-1-YL)AMINOQUINOLINE ANALOGS AS MODULATORS OF MELANOMA-ASSOCIATED ANTIGEN 11 UBIQUITIN LIGASE” (ST. JUDE CHILDREN'S RESEARCH HOSPITAL, INC., priority 2020, published 2024).

For the experiment, the target named is MAGE-A11:PCF11 (Homo sapiens (Human), UniProt P43364). The experiment in a line: TR-FRET single point screening at 15 μM. Details: unit not given here. It is filed as binding. The essentials:
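Competition TR-FRET: compounds at final 15 μM mixed with 200 nM FAM-PCF11_4, 5 nM GST-MAGEA11 and 5 nM Tb-anti-GST in Tris pH 7.5/MgCl2/BSA/DTT buffer, room temperature, 90 min. Emission ratio 520/490 nm (340 nm excitation) expressed as % inhibition relative to positive and negative controls.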
On the technique in general: TR-FRET usually uses a lanthanide donor and a delayed reading to cut background.

The mark [1] stands for this setting: single point TR-FRET screening of quinoline compounds against MAGE-A11:PCF11, 15 μM.
Setting [2] is: single point TR-FRET screening at 15 μM against MAGE-A11:PCF11.

MAGE-A11:PCF11, sequence (P43364 218-429): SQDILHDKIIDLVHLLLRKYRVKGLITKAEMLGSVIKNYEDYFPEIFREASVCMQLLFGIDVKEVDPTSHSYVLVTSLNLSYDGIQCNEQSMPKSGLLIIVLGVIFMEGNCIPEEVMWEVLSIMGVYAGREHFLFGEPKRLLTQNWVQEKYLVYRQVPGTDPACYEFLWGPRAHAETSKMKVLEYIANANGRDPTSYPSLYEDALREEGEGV

Compound `CCCN(CCCNc1ccnc2cc(Cl)ccc12)Cc1cccc(F)c1` [SJ000522758] came in with a TR-FRET signal under setting [1] of 27.42. `CCCN(CCCNc1ccnc2cc(Cl)ccc12)Cc1ccc(F)cc1` [SJ000522759] had a TR-FRET signal under setting [1] of 20.79. Compound `CCCN(CCCNc1ccnc2cc(Cl)ccc12)Cc1cc2ccccc2nc1Cl` [SJ000522760] returned a TR-FRET signal under setting [1] of 12.8. The same measure, in the same setting: the same measure for `CCCN(CCCNc1ccnc2cc(Cl)ccc12)Cc1ccc(Cl)c([N+](=O)[O-])c1` [SJ000522761]: 16.95; for `CCCN(CCCNc1ccnc2cc(Cl)ccc12)Cc1c2ccccc2cc2ccccc12` [SJ000522762]: 15.49.

As to `CCCN(CCCNc1ccnc2cc(Cl)ccc12)Cc1cccc(C#N)c1` [SJ000522763], under setting [1], the TR-FRET signal is reported as 12.91.

Under setting [1], `COc1ccc2nc3cc(Cl)ccc3c(NCCCNCc3cccc(C)c3)c2c1` [SJ000522956] showed a TR-FRET signal of −7.089.

Under setting [2], `COC(=O)c1ccc(CNCCCNc2c3ccc(Cl)cc3nc3ccc(OC)cc23)cc1` [SJ000522957] gave a TR-FRET signal of −133.

Take `COc1ccc2nc3cc(Cl)ccc3c(NCCCNCc3ccc(Cl)cc3Cl)c2c1` [SJ000522958]: the TR-FRET signal under setting [2] was −97.83.

Under setting [1], `COc1ccc2nc3cc(Cl)ccc3c(NCCCNCc3ccc(-c4cccc(Cl)c4)o3)c2c1` [SJ000522959] had a TR-FRET signal of −47.42. Same read-out and setting: the same measure for `COc1ccc2nc3cc(Cl)ccc3c(NCCCNCc3c(Cl)ccc(Cl)c3Cl)c2c1` [SJ000522960]: −81.49; for `CCCN(CCCNc1c2ccc(Cl)cc2nc2ccc(OC)cc12)Cc1ccccc1OC(F)(F)F` [SJ000522961]: 22.69. On to `CCCN(CCCNc1c2ccc(Cl)cc2nc2ccc(OC)cc12)Cc1cc2ccccc2s1` [SJ000522962], for which, under setting [1], the TR-FRET signal is on record as −21.58. `CCCN(CCCNc1c2ccc(Cl)cc2nc2ccc(OC)cc12)Cc1ccc(OC)c(F)c1` [SJ000522963] returned a TR-FRET signal under setting [2] of −177.5. Under setting [2], `CCCN(CCCNc1c2ccc(Cl)cc2nc2ccc(OC)cc12)Cc1cn(C)c2ccccc12` [SJ000522964] came in with a TR-FRET signal of −162.2. Turning to `CCCN(CCCNc1c2ccc(Cl)cc2nc2ccc(OC)cc12)Cc1cc(OC)ccc1F` [SJ000522965], the TR-FRET signal under setting [1] is listed as −81.24.

Regarding `CCCN(CCCNc1c2ccc(Cl)cc2nc2ccc(OC)cc12)Cc1nc(C)cs1` [SJ000522966], the TR-FRET signal under setting [1] was −82.15. Same read-out and setting: the same measure for `CCCN(CCCNc1c2ccc(Cl)cc2nc2ccc(OC)cc12)Cc1cccc(OC(F)(F)F)c1` [SJ000522967]: 14.48; for `CCCN(CCCNc1c2ccc(Cl)cc2nc2ccc(OC)cc12)Cc1c(F)cccc1C(F)(F)F` [SJ000522968]: 23.09; for `CCCN(CCCNc1c2ccc(Cl)cc2nc2ccc(OC)cc12)Cc1nc2ccccc2s1` [SJ000522969]: −68.77. As for `CCCN(CCCNc1c2ccc(Cl)cc2nc2ccc(OC)cc12)Cc1csc2ccccc12` [SJ000522970], under setting [1], the TR-FRET signal was −51.69. Regarding `CCCCN(CCC)CCCNc1c2ccc(Cl)cc2nc2ccc(OC)cc12` [SJ000522971], the TR-FRET signal under setting [2] is given as −286.9. As to `CCCN(CCCNc1c2ccc(Cl)cc2nc2ccc(OC)cc12)Cc1ccc(CC)cc1` [SJ000522972], the TR-FRET signal under setting [2] is −105.1. `CCCN(CCCNc1c2ccc(Cl)cc2nc2ccc(OC)cc12)Cc1nccn1C` [SJ000522973]: under setting [2], the TR-FRET signal was −159.9. `CCCN(CCCNc1c2ccc(Cl)cc2nc2ccc(OC)cc12)Cc1ccc(Cl)c(C(F)(F)F)c1` [SJ000522974]: the TR-FRET signal under setting [1] came to 16.36. The compound `CCCN(CCCNc1c2ccc(Cl)cc2nc2ccc(OC)cc12)Cc1cncc(Br)c1` [SJ000522975] displayed a TR-FRET signal under setting [1] of −89.08. Take `CCCN(CCCNc1c2ccc(Cl)cc2nc2ccc(OC)cc12)Cc1scnc1C` [SJ000522976]: the TR-FRET signal under setting [2] is recorded as −127. `CCCN(CCCNc1c2ccc(Cl)cc2nc2ccc(OC)cc12)Cc1cccnc1Br` [SJ000522977] returned a TR-FRET signal under setting [1] of 0.2567. `CCCN(CCCNc1c2ccc(Cl)cc2nc2ccc(OC)cc12)Cc1c[nH]c2ccccc12` [SJ000522978]: the TR-FRET signal under setting [2] is given as −166.2. Still for that read-out and setting: for `CCCN(CCCNc1c2ccc(Cl)cc2nc2ccc(OC)cc12)Cc1cccc2c1OCO2` [SJ000522979] the value was −108; for `CCCN(CCCNc1c2ccc(Cl)cc2nc2ccc(OC)cc12)Cc1cnn(C)c1` [SJ000522980], −276.6; for `CCCN(CCCNc1c2ccc(Cl)cc2nc2ccc(OC)cc12)CCOCc1ccccc1` [SJ000522981], −212.4.

`CCCN(CCCNc1c2ccc(Cl)cc2nc2ccc(OC)cc12)Cc1cc(F)cc(F)c1O` [SJ000522982] yielded a TR-FRET signal under setting [1] of 2.045. In turn, `CCCN(CCCNc1c2ccc(Cl)cc2nc2ccc(OC)cc12)CCC(C)(C)C` [SJ000522983] showed a TR-FRET signal under setting [2] of −233.7. Under setting [1], `CCCN(CCCNc1c2ccc(Cl)cc2nc2ccc(OC)cc12)Cc1cc(OC(F)(F)F)ccc1OC` [SJ000522984] showed a TR-FRET signal of −36.71. Under setting [1], `CCCN(CCCNc1c2ccc(Cl)cc2nc2ccc(OC)cc12)Cc1cc(C(F)(F)F)ccc1OC` [SJ000522985] came in with a TR-FRET signal of −46.02. On the same count and under the same terms, for `CCCN(CCCNc1c2ccc(Cl)cc2nc2ccc(OC)cc12)Cc1cccc(C(F)(F)F)c1` [SJ000522986] the value was 16.15. On to `CCCN(CCCNc1c2ccc(Cl)cc2nc2ccc(OC)cc12)Cc1cccn1C` [SJ000522987], for which the TR-FRET signal under setting [2] is listed as −302.6. Regarding `CCCN(CCCNc1c2ccc(Cl)cc2nc2ccc(OC)cc12)Cc1nccs1` [SJ000522988], under setting [2], the TR-FRET signal is on record as −117.5.

Compound `CCCN(CCCNc1c2ccc(Cl)cc2nc2ccc(OC)cc12)Cc1cc(Br)cs1` [SJ000522989] showed a TR-FRET signal under setting [1] of −56.7. Under setting [1], `CCCN(CCCNc1ccnc2cc(Cl)ccc12)Cc1c[nH]c(C)n1` [SJ000522990] gave a TR-FRET signal of 4.828. `CCCN(CCCNc1ccnc2cc(Cl)ccc12)Cc1cc2ccccc2o1` [SJ000522991]: the TR-FRET signal under setting [1] came out at 9.295. Regarding `CCCN(CCCNc1ccnc2cc(Cl)ccc12)Cc1c[nH]c2ccc(F)cc12` [SJ000522992], the TR-FRET signal under setting [1] worked out at 29.34. In turn, `CCCN(CCCNc1ccnc2cc(Cl)ccc12)Cc1cc2ccccc2s1` [SJ000522993] came in with a TR-FRET signal under setting [1] of 5.864. `CCCN(CCCNc1ccnc2cc(Cl)ccc12)Cc1ccc(OC)c(F)c1` [SJ000522994] registered a TR-FRET signal under setting [1] of 15.16. As for `CCCN(CCCNc1ccnc2cc(Cl)ccc12)Cc1cn(C)c2ccccc12` [SJ000522995], under setting [1], the TR-FRET signal is recorded as −1.532. The same measure, in the same setting: the same measure for `CCCN(CCCNc1ccnc2cc(Cl)ccc12)Cc1cc(OC)ccc1F` [SJ000522996]: 26.66; for `CCCN(CCCNc1ccnc2cc(Cl)ccc12)Cc1nc(C)cs1` [SJ000522997]: 3.413; for `CCCN(CCCNc1ccnc2cc(Cl)ccc12)Cc1ccc(OC(F)(F)F)cc1` [SJ000522999]: 22.74. For `C#Cc1ccccc1CN(CCC)CCCNc1ccnc2cc(Cl)ccc12` [SJ000523000], the TR-FRET signal under setting [1] came out at 12.45. The same measure, in the same setting: for `CCCN(CCCNc1ccnc2cc(Cl)ccc12)Cc1ccc(CC)cc1` [SJ000523001] the value was 30.13; for `CCCN(CCCNc1ccnc2cc(Cl)ccc12)Cc1nccn1C` [SJ000523002], 6.351. For `CCCN(CCCNc1ccnc2cc(Cl)ccc12)Cc1cncc(Br)c1` [SJ000523004], the TR-FRET signal under setting [1] was 4.828. On the same count and under the same terms, for `CCCN(CCCNc1ccnc2cc(Cl)ccc12)Cc1scnc1C` [SJ000523005] the value was 11.85; for `CCCN(CCCNc1ccnc2cc(Cl)ccc12)Cc1cccnc1Br` [SJ000523006], 13.31; for `CCCN(CCCNc1ccnc2cc(Cl)ccc12)Cc1c[nH]c2ccccc12` [SJ000523007], 26.23.

In turn, `CCCN(CCCNc1ccnc2cc(Cl)ccc12)Cc1ncc[nH]1` [SJ000523008] displayed a TR-FRET signal under setting [1] of 4.165. The same measure, in the same setting: for `CCCN(CCCNc1ccnc2cc(Cl)ccc12)Cc1cnn(C)c1` [SJ000523009] the value was 10.06. Compound `CCCN(CCCNc1ccnc2cc(Cl)ccc12)Cc1[nH]cnc1C` [SJ000523010] gave a TR-FRET signal under setting [1] of 12.05.

Turning to `CCCN(CCCNc1ccnc2cc(Cl)ccc12)Cc1cc(OC(F)(F)F)ccc1OC` [SJ000523011], under setting [1], the TR-FRET signal was found to be 15.67.

`CCCN(CCCNc1ccnc2cc(Cl)ccc12)Cc1cc(C(F)(F)F)ccc1OC` [SJ000523012]: the TR-FRET signal under setting [1] amounted to 30.4. The same measure, in the same setting: for `CCCN(CCCNc1ccnc2cc(Cl)ccc12)Cc1cccc(C(F)(F)F)c1` [SJ000523013] the value was 17.48; for `CCCN(CCCNc1ccnc2cc(Cl)ccc12)Cc1cccn1C` [SJ000523014], 22.71. Compound `CCCN(CCCNc1ccnc2cc(Cl)ccc12)CC1CCOC1` (stereo not shown) [SJ000523016] registered a TR-FRET signal under setting [1] of 9.664.

In turn, `CCCN(CCCCCC(=O)OC)CCCNc1ccnc2cc(Cl)ccc12` [SJ000523017] gave a TR-FRET signal under setting [1] of 14.3. Under setting [2], `CCCN(CCCNc1c2ccc(Cl)cc2nc2ccc(OC)cc12)Cc1ccc(C(=O)OC)cc1` [SJ000523018] showed a TR-FRET signal of −118.6. Under setting [2], `CCCN(CCCNc1c2ccc(Cl)cc2nc2ccc(OC)cc12)Cc1ccc(-c2ccccc2[N+](=O)[O-])o1` [SJ000523019] had a TR-FRET signal of −102.8. For `CCCN(CCCNc1c2ccc(Cl)cc2nc2ccc(OC)cc12)Cc1ccc(-c2cccc(Cl)c2)o1` [SJ000523020], the TR-FRET signal under setting [2] is recorded as −169.7. Under setting [1], `CCCN(CCCNc1c2ccc(Cl)cc2nc2ccc(OC)cc12)Cc1c(Cl)ccc(Cl)c1Cl` [SJ000523021] returned a TR-FRET signal of 40. The compound `CCCN(CCCNc1c2ccc(Cl)cc2nc2ccc(OC)cc12)Cc1ccc([N+](=O)[O-])o1` [SJ000523022] came in with a TR-FRET signal under setting [2] of −329.7.
